# Measured values as given in patent publication US20230391774A1, “Novel Compounds” (AC Immune SA, priority 2020, published 2023).
# Where a name gives a salt, the structure may show the parent alone.
# Molecular target: T1, Tau K18 fragment aggregates (amino acids 244 to 372 of human Tau441) (Homo sapiens, UniProt P10636)
# T1 construct: encompassing amino acids 244 to 372 of the longest isoform (2N4R) of human Tau441; purchased Biotechne; host or cells: bacteria
# Experiment: Tau K18 disaggregation assay by ThT
# Assay type: biochemical
# Details: ThT fluorescence; 2 μM K18 aggregates, 30 minutes at RT
# Description: Tau K18 Disaggregation Assay by ThT
# The Tau K18 fragment, encompassing amino acids 244 to 372 of the longest isoform (2N4R) of human Tau441, was expressed in bacteria and purified (Biotechne). For the K18 disaggregation assay by ThT, 35 μM of recombinant K18 in PBS were aggregated for 24 hours at 37° C. in presence of 25 μM of heparin (Sigma-Aldrich) and 10 mM of 1,4-Dithiothreito (DTT from Sigma-Aldrich) under shaking at 750 RPM. Compound 1 was dissolved in anhydrous dimethyl sulfoxide (DMSO, Sigma-Aldrich) to reach a concentration of 10 mM. K18 aggregates and serial dilutions of compounds were mixed together in PBS (volume 50 μL) to a final concentration of 2 μM of K18 aggregates and from 400 to 0.1 μM of Compound 1. The mixture was incubated for 30 minutes at room temperature (RT), then 40 μL of this mixture were transferred into a black 384-well plate assay (Perkin-Elmer) and mixed with 10 μL of 100 μM ThT in 250 mM glycine (both from Sigma-Aldrich) in PBS. Fluorescence (relative fluorescence units; RFU) was measured in monoplicate or duplicate on a Tecan reader (excitation: 440 nm; emission: 485 nm). Percentage of K18 disaggregation was then calculated and half maximal effective concentration (EC50) was determined using GraphPad Prism version 8 (GraphPad Software) assuming a one-binding site fitting model, see Table 3 and Table 4.
# T1 sequence (P10636 561-689): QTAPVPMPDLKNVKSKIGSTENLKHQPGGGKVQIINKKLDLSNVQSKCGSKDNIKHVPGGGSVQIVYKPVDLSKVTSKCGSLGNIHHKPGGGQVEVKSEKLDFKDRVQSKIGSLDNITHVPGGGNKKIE
row,SMILES,EC50 [µM]
1,"Cn1cc(C2CCN(c3ccc4nc(N5CCOCC5)sc4n3)CC2)c2cc(F)cnc21 [Example 57, 4-(5-(4-(5-fluoro-1-methyl-1H-pyrrolo[2,3-b]pyridin-3-yl)piperidin-1-yl)thiazolo[5,4-b]pyridin-2-yl)morpholine]",10 to 50
2,"c1ccc2c(C3CCN(c4cc5oc(N6CCOCC6)nc5cn4)CC3)c[nH]c2c1 [Example 58, 6-(4-(1H-indol-3-yl)piperidin-1-yl)-2-morpholinooxazolo[4,5-c]pyridine]",10 to 50
3,"c1ccn2c(C3CCN(c4ccc5nc(N6CCOCC6)oc5c4)CC3)cnc2c1 [Example 59, 6-(4-(imidazo[1,2-a]pyridin-3-yl)piperidin-1-yl)-2-morpholinobenzo[d]oxazole]",1 to 10
4,"c1ccc2c(C3CCN(c4ccc5sc(N6CCOCC6)nc5n4)CC3)n[nH]c2c1 [Example 62, 4-(5-(4-(1H-indazol-3-yl)piperidin-1-yl)thiazolo[4,5-b]pyridin-2-yl)morpholine]",1 to 10
5,"c1ccc2c(C3CCN(c4ccc5sc(N6CCOCC6)nc5c4)CC3)n[nH]c2c1 [Example 63, 4-(5-(4-(1H-indazol-3-yl)piperidin-1-yl)benzo[d]thiazol-2-yl)morpholine]",10 to 50
6,"c1ccc2c(C3CCN(c4ccc5nc(N6CCOCC6)oc5n4)CC3)n[nH]c2c1 [Example 64, 5-(4-(1H-indazol-3-yl)piperidin-1-yl)-2-morpholinooxazolo[5,4-b]pyridine]",1 to 10
7,"c1ccc2c(C3CCN(c4cnc5sc(N6CCOCC6)nc5c4)CC3)c[nH]c2c1 [Example 65, 4-(6-(4-(1H-indol-3-yl)piperidin-1-yl)thiazolo[5,4-b]pyridin-2-yl)morpholine]",1 to 10
8,"c1ccc2c(C3CCN(c4cc5nc(N6CCOCC6)sc5cn4)CC3)n[nH]c2c1 [Example 66, 4-(6-(4-(1H-indazol-3-yl)piperidin-1-yl)thiazolo[5,4-c]pyridin-2-yl)morpholine]",< 1
9,"c1ccc2c(C3CCN(c4cc5nc(N6CCOCC6)sc5cn4)CC3)c[nH]c2c1 [Example 67, 4-(6-(4-(1H-indol-3-yl)piperidin-1-yl)thiazolo[5,4-c]pyridin-2-yl)morpholine]",< 1
10,"Fc1ccc2[nH]cc(C3CCN(c4ccc5oc(N6CCOCC6)nc5c4)CC3)c2c1 [Example 69, 5-(4-(5-fluoro-1H-indol-3-yl)piperidin-1-yl)-2-morpholinobenzo[d]oxazole]",1 to 10
11,"c1ccc2c(C3CCN(c4ccc5nc(N6CCOCC6)oc5n4)CC3)c[nH]c2c1 [Example 101, 5-(4-(1H-indol-3-yl)piperidin-1-yl)-2-morpholinooxazolo[5,4-b]pyridine]",10 to 50
12,"Fc1cnc2c(C3CCN(c4ccc5nc(N6CCOCC6)oc5c4)CC3)c[nH]c2c1 [Example 103, 6-(4-(6-fluoro-1H-pyrrolo[3,2-b]pyridin-3-yl)piperidin-1-yl)-2-morpholinobenzo[d]oxazole]",1 to 10
13,"c1ccc2c(C3CCN(c4ccc5nc(N6CCOCC6)sc5n4)CC3)c[nH]c2c1 [Example 108, 4-(5-(4-(1H-indol-3-yl)piperidin-1-yl)thiazolo[5,4-b]pyridin-2-yl)morpholine hydrochloride]",10 to 50
14,"Cn1cc(C2CC3CN(c4ccc5oc(N6CCOCC6)nc5c4)CC3C2)c2cc(F)cnc21 (centres unmarked) [Example 112, 5-(5-(5-fluoro-1-methyl-1H-pyrrolo[2,3-b]pyridin-3-yl)hexahydrocyclopenta[c]pyrrol-2(1H)-yl)-2-morpholinobenzo[d]oxazole hydrochloride]",1 to 10
